Legend:
osMnmM (osYtqB) = target: T1, osMnmM (osYtqB) (Oryza sativa, UniProt Q0DGU2); settings: 0.1 mM SAM, 20 uM enzyme, bulk tRNA from B. subtilis delta-ytqB (nm5s2U), pH 7.5, 37 C
T1 construct: gene Os05g0511700

atMnmM (atYtqB) = target: T2, atMnmM (atYtqB) (Arabidopsis thaliana, UniProt Q8GUP2); assay: in vitro tRNA methylation, nucleoside HPLC / LC-MS; type: biochemical; settings: 0.1 mM SAM, 20 uM enzyme, bulk tRNA from B. subtilis delta-ytqB (nm5s2U), pH 7.5, 37 C
T2 construct: gene At1g16445; residues 53-274, chloroplast signal peptide removed, codon-optimized, His-tagged, expressed in E. coli BL21(DE3)
T2 sequence (Q8GUP2 53-274): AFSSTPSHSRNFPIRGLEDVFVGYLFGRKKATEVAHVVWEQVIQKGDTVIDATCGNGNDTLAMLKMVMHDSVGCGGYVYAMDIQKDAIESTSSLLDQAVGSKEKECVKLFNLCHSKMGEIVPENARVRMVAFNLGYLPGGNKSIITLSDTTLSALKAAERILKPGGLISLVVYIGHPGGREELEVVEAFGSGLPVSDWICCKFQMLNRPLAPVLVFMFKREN

T1 sequence (Q0DGU2 48-260): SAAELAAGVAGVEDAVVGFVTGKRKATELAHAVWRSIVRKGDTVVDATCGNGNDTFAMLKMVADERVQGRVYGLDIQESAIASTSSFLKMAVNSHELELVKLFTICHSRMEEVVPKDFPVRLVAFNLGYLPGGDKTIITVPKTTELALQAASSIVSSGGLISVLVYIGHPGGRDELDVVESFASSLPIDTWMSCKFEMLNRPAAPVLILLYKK

## C[S+](CC[C@H](N)C(=O)O)C[C@H]1O[C@@H](n2cnc3c(N)ncnc32)[C@H](O)[C@@H]1O (some centres unmarked) [SAM]
osMnmM (osYtqB)
  in vitro tRNA methylation, nucleoside HPLC / LC-MS: saMnmM, atMnmM, and osMnmM were capable of methylating the hypomodified tRNA substrates
atMnmM (atYtqB)
  in vitro tRNA methylation, nucleoside HPLC / LC-MS: saMnmM, atMnmM, and osMnmM were capable of methylating the hypomodified tRNA substrates

Reference: paper PMC9976899, “Identification of a novel 5-aminomethyl-2-thiouridine methyltransferase in tRNA modification” (Nucleic Acids Research, 2023)
